Series [1] relates to Phakopsora pachyrhizi. The series can be described thus: Fungicidal activity against Phakopsora pachyrhizi / soybean / leaf disc preventative (Asian soybean rust). In kind it is in vivo. Conditions: foliar, 200 ppm in the applied formulation, soybean leaf disks, compared to untreated, read-out: disease control. On the procedure: Leaf disks or leaf segments of various plant species are cut from plants grown in a greenhouse. The cut leaf disks or segments are placed in multiwell plates (24-well format) onto water agar. The leaf disks are sprayed with a test solution before (preventative) or after (curative) inoculation. Compounds to be tested are prepared as DMSO solutions (max. 10 mg/mL) which are diluted to the appropriate concentration with 0.025% Tween20 just before spraying. The inoculated leaf disks or segments are incubated under defined conditions (temperature, relative humidity, light, etc.) according to the respective test system. A single evaluation of disease level is carried out 3 to 14 days after inoculation, depending on the pathosystem. Percent disease control relative to the untreated check leaf disks or segments is then calculated. Soybean leaf disks are placed on water agar in multiwell plates (24-well format) and sprayed with the formulated test compound diluted in water. One day after application leaf discs are inoculated by spraying a spore suspension on the lower leaf surface. After an incubation period in a climate cabinet of 24-36 hours in darkness at 20° C. and 75% rh leaf disc are kept at 20° C. with 12 h light/day and 75% rh. The activity of a compound is assessed as percent disease control compared to untreated when an appropriate level of disease damage appears in untreated check leaf disks (12 to 14 days after application). The following compounds at 200 ppm in the applied formulation give at least 80% disease control in this test when compared to untreated control leaf disks under the same conditions, which show extensive disease development.

The subject of series [2] is Glomerella lagenarium (Colletotrichum lagenarium). Put plainly: Fungicidal activity against Glomerella lagenarium (Colletotrichum lagenarium) liquid culture / cucumber / preventative (anthracnose). Type of series: cell-based. Conditions: Colletotrichum orbiculare; 20 ppm in the applied formulation; liquid culture (PDB), inhibition of growth measured photometrically 3 to 4 days after application; compared to untreated; read-out: disease control. In short, it runs like this:
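Conidia from cryogenic storage mixed into potato dextrose broth and added to compound in DMSO in microtiter plates. Incubated at 24° C.; growth inhibition read photometrically 3 to 4 days after application. Disease control expressed relative to untreated control, with compound at 20 ppm in the applied formulation.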

Series [3] relates to Puccinia recondita f. Sp. Tritici. Put plainly: Fungicidal activity against Puccinia recondita f. sp. tritici / wheat / leaf disc curative (brown rust). Conditions: foliar, 24 h, 200 ppm in the applied formulation, wheat leaf segments cv. Kanzler, curative (applied 1 day after inoculation), compared to untreated, read-out: disease control. In kind it is in vivo. In short, it runs like this:
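Wheat leaf segments (cv. Kanzler) on agar were inoculated with brown rust spores, kept dark at 19 °C and 75% RH, then sprayed 1 day later with compound (DMSO stock diluted in 0.025% Tween20). Under 12 h light/12 h dark at 19 °C, percent disease control versus untreated was scored 6–8 days after application; 200 ppm applied.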

Series [4] shares this test system. The series can be described thus: Fungicidal activity against Puccinia recondita f. sp. tritici / wheat / leaf disc preventative (brown rust). In kind it is in vivo. Conditions: foliar, 200 ppm in the applied formulation, wheat leaf segments cv. Kanzler, preventative (inoculated 1 day after application), compared to untreated, read-out: disease control. In short, it runs like this: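 Segments of wheat cv. Kanzler on water agar were sprayed with compound and inoculated with spores 1 day later. They were kept at 19 °C, 75% rh and 12 h light/12 h dark. Percent disease control versus untreated was scored 7–9 days after application; compounds were tested at 200 ppm.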

As usually defined, the melting point is the temperature, or range, at which the solid turns liquid.

Take `CNC(=O)c1cnn(Cc2ccc(-c3noc(C(F)(F)F)n3)s2)c1` [Compound 1.38, N-methyl-1-[[5-[5-(trifluoromethyl)-1,2,4-oxadiazol-3-yl]-2-thienyl]methyl]pyrazole-4-carboxamide]: the melting point is 150.8 to 155.7 °C. In series [1], the pest or weed control at 200 ppm is ≥ 80%. Also, the inhibition of growth at 20 ppm in series [2] was ≥ 80%. In addition, the pest or weed control at 200 ppm in series [3] is ≥ 80%. Further, the pest or weed control at 200 ppm in series [4] is ≥ 80%.

For `COC(=O)c1ccn(Cc2ccc(-c3noc(C(F)(F)F)n3)s2)n1` [Compound 1.53, methyl 1-[[5-[5-(trifluoromethyl)-1,2,4-oxadiazol-3-yl]-2-thienyl]methyl]pyrazole-3-carboxylate], the pest or weed control at 200 ppm in series [1], in series [3] and in series [4] was ≥ 80% throughout. In addition, the inhibition of growth at 20 ppm in series [2] is ≥ 80%.

In the case of `O=C(O)c1ccnn1Cc1ccc(-c2noc(C(F)(F)F)n2)s1` [Compound 1.64, 2-[[5-[5-(trifluoromethyl)-1,2,4-oxadiazol-3-yl]-2-thienyl]methyl]pyrazole-3-carboxylic acid], the melting point is 145 to 165 °C. Besides, in series [2], the inhibition of growth at 20 ppm is ≥ 80%. For the same compound, the pest or weed control at 200 ppm in series [3] is ≥ 80%. In series [4], the pest or weed control at 200 ppm is ≥ 80%.

As to `CN(C)c1ncnn1Cc1ccc(-c2noc(C(F)(F)F)n2)s1` [Compound 1.13, N,N-dimethyl-2-[[5-[5-(trifluoromethyl)-1,2,4-oxadiazol-3-yl]-2-thienyl]methyl]-1,2,4-triazol-3-amine], the pest or weed control at 200 ppm in series [1], in series [3] and in series [4] was ≥ 80% throughout. Besides, the inhibition of growth at 20 ppm in series [2] is ≥ 80%.

As to `O=C(O)c1ncn(Cc2ccc(-c3noc(C(F)(F)F)n3)s2)n1` [Compound 1.63, 1-[[5-[5-(trifluoromethyl)-1,2,4-oxadiazol-3-yl]-2-thienyl]methyl]-1,2,4-triazole-3-carboxylic acid], the melting point lay in the range of 210 to 220 °C. In addition, the pest or weed control at 200 ppm in series [3] was ≥ 80%. Also, in series [4], the pest or weed control at 200 ppm is ≥ 80%.

On to `CCCOC(=O)c1ncnn1Cc1ccc(-c2noc(C(F)(F)F)n2)s1` [Compound 1.44, propyl 2-[[5-[5-(trifluoromethyl)-1,2,4-oxadiazol-3-yl]-2-thienyl]methyl]-1,2,4-triazole-3-carboxylate], for which the pest or weed control at 200 ppm in series [1], in series [3] and in series [4] was ≥ 80% each time. For the same compound, the inhibition of growth at 20 ppm in series [2] was ≥ 80%.

As for `CCOC(=O)c1ncnn1Cc1ccc(-c2noc(C(F)(F)F)n2)s1` [Compound 1.41, ethyl 2-[[5-[5-(trifluoromethyl)-1,2,4-oxadiazol-3-yl]-2-thienyl]methyl]-1,2,4-triazole-3-carboxylate], the pest or weed control at 200 ppm in series [1], in series [3] and in series [4] was ≥ 80% in each case. For the same compound, the inhibition of growth at 20 ppm in series [2] was ≥ 80%.

As to `CN(C)C(=O)c1ncnn1Cc1ccc(-c2noc(C(F)(F)F)n2)s1` [Compound 1.50, N,N-dimethyl-2-[[5-[5-(trifluoromethyl)-1,2,4-oxadiazol-3-yl]-2-thienyl]methyl]-1,2,4-triazole-3-carboxamide], the pest or weed control at 200 ppm in series [1], in series [3] and in series [4] was ≥ 80% throughout. For the same compound, in series [2], the inhibition of growth at 20 ppm is ≥ 80%.

As to `CCOC(=O)c1cnn(Cc2ccc(-c3noc(C(F)(F)F)n3)s2)c1` [Compound 1.1, ethyl 1-[[5-[5-(trifluoromethyl)-1,2,4-oxadiazol-3-yl]-2-thienyl]methyl]pyrazole-4-carboxylate], the pest or weed control at 200 ppm in series [1], in series [3] and in series [4] was ≥ 80% each time. Further, the inhibition of growth at 20 ppm in series [2] was ≥ 80%.

In the case of `COc1ccc2c(c1)ncn2Cc1ccc(-c2noc(C(F)(F)F)n2)s1` [Compound 1.24, 3-[5-[(5-methoxybenzimidazol-1-yl)methyl]-2-thienyl]-5-(trifluoromethyl)-1,2,4-oxadiazole], the pest or weed control at 200 ppm in series [1], in series [3] and in series [4] was ≥ 80% each time. In series [2], the inhibition of growth at 20 ppm is ≥ 80%.

Consider `CC(c1ccc(-c2noc(C(F)(F)F)n2)s1)n1cc(C(=O)O)cn1` (centres unmarked) [Compound 1.37, 1-[1-[5-[5-(trifluoromethyl)-1,2,4-oxadiazol-3-yl]-2-thienyl]ethyl]pyrazole-4-carboxylic acid], for which the melting point was 133 to 143 °C. Besides, in series [2], the inhibition of growth at 20 ppm was ≥ 80%. Further, the pest or weed control at 200 ppm in series [3] was ≥ 80%. For the same compound, the pest or weed control at 200 ppm in series [4] is ≥ 80%.

Regarding `O=C(O)c1cnn(Cc2ccc(-c3noc(C(F)(F)F)n3)s2)c1` [Compound 1.36, 1-[[5-[5-(trifluoromethyl)-1,2,4-oxadiazol-3-yl]-2-thienyl]methyl]pyrazole-4-carboxylic acid], the melting point was in the range of 182 to 185 °C. Further, in series [2], the inhibition of growth at 20 ppm is ≥ 80%. The pest or weed control at 200 ppm in series [3] was ≥ 80%. Besides, the pest or weed control at 200 ppm in series [4] was ≥ 80%.

The compound `CCOC(=O)c1cnn(Cc2cc(-c3noc(C(F)(F)F)n3)cs2)c1` [Compound 1.26, ethyl 1-[[4-[5-(trifluoromethyl)-1,2,4-oxadiazol-3-yl]-2-thienyl]methyl]pyrazole-4-carboxylate] displayed a melting point of 119 to 123 °C. For the same compound, in series [2], the inhibition of growth at 20 ppm is ≥ 80%. The pest or weed control at 200 ppm in series [4] was ≥ 80%.

For the compound `COc1ccc2ncn(Cc3ccc(-c4noc(C(F)(F)F)n4)s3)c2c1` [Compound 1.23, 3-[5-[(6-methoxybenzimidazol-1-yl)methyl]-2-thienyl]-5-(trifluoromethyl)-1,2,4-oxadiazole], the pest or weed control at 200 ppm in series [1], in series [3] and in series [4] was ≥ 80% throughout. Further, the inhibition of growth at 20 ppm in series [2] is ≥ 80%.

In the case of `FC(F)(F)c1nc(-c2ccc(Cn3ccnc3)s2)no1` [Compound 1.17, 3-[5-(imidazol-1-ylmethyl)-2-thienyl]-5-(trifluoromethyl)-1,2,4-oxadiazole], the pest or weed control at 200 ppm in series [1], in series [3] and in series [4] was ≥ 80% each time. Moreover, the inhibition of growth at 20 ppm in series [2] was ≥ 80%.

On to `CCOC(=O)c1ccnn1Cc1ccc(-c2noc(C(F)(F)F)n2)s1` [Compound 1.45, ethyl 2-[[5-[5-(trifluoromethyl)-1,2,4-oxadiazol-3-yl]-2-thienyl]methyl]pyrazole-3-carboxylate], for which the pest or weed control at 200 ppm in series [1], in series [3] and in series [4] was ≥ 80% in each case. Further, the inhibition of growth at 20 ppm in series [2] was ≥ 80%.

As to `FC(F)(F)c1nc(-c2ccc(Cn3cnc4ccccc43)s2)no1` [Compound 1.25, 3-[5-(benzimidazol-1-ylmethyl)-2-thienyl]-5-(trifluoromethyl)-1,2,4-oxadiazole], the pest or weed control at 200 ppm in series [1], in series [3] and in series [4] was ≥ 80% in each case. Further, the inhibition of growth at 20 ppm in series [2] is ≥ 80%.

As to `COC(=O)c1ncn(Cc2ccc(-c3noc(C(F)(F)F)n3)s2)n1` [Compound 1.6, methyl 1-[[5-[5-(trifluoromethyl)-1,2,4-oxadiazol-3-yl]-2-thienyl]methyl]-1,2,4-triazole-3-carboxylate], the pest or weed control at 200 ppm in series [1], in series [3] and in series [4] was ≥ 80% each time. Further, the inhibition of growth at 20 ppm in series [2] was ≥ 80%.

The values above are taken from patent US11358957B2, “Microbiocidal oxadiazole derivatives” (SYNGENTA PARTICIPATIONS AG, priority 2017, dated 2022).
